PubChem BioAssay AID463229 (Broad Institute, 2010)

Test system: INS-1E rat beta cells, no cytokines, CellTiter-Glo ATP, 48 h
Assay: cytokine-free beta-cell viability effect – INS-1E rat cells, ATP luminescence, cherry pick, counter-screen for beta-cell apoptosis protection project, dose response (AID 463229)

Cc1ccccc1C(=O)Nc1cccc(C(=O)N/N=C/c2cc(Cl)cc([N+](=O)[O-])c2O)c1
AC50: 13.3 µM

Cc1ccc(C(C)C)c(OCc2nn(CC(=O)c3ccc(Cl)cc3)c3[n+]2CCCCC3)c1
AC50: 4.55 µM

CCc1nnc(NC(=O)c2cccc(C(=O)Nc3nnc(CC)s3)n2)s1
AC50: 2.98 µM

Cc1cccc(NC(=O)c2nc(S(=O)(=O)Cc3ccccc3)ncc2Cl)c1
AC50: 15.8 µM

C=C1C(=O)O[C@@H]2C[C@@H](C)[C@@H]3C=CC(=O)[C@@]3(C)[C@@H](OC(=O)CC(=O)O[C@H]3[C@@H]4C(=C)C(=O)O[C@@H]4C[C@@H](C)[C@@H]4C=CC(=O)[C@]43C)[C@H]12
AC50: 0.386 µM

COc1ccc(CC(=O)Nc2cccc(-c3nnc(-c4cccc(C)c4)o3)c2)cc1OC
AC50: 3.46 µM

CC(C)Nc1ccc(Nc2ccnc3cc4ccccc4cc23)cc1
AC50: 7.2 µM

Cc1ccccc1-[n+]1c(-c2ccccc2)cc(-c2ccccc2)cc1-c1ccccc1
AC50: 2.2 µM

O=C(OCn1ncc(Br)c(Br)c1=O)c1ccc(F)cc1
AC50: 5.09 µM

CN(C)CCCNc1c2ccccc2nc2ccccc12
AC50: 16.2 µM

COc1cccc(/C=N/NC(=O)CN2CC(c3ccccc3)CC2=O)c1O (configuration not stated)
AC50: 18.7 µM

C/C(=N\NC(=O)c1ccc(F)cc1)c1ccccn1
AC50: 2.35 µM

COc1cccc(Cn2c(NCc3ccco3)nc3c2c(=O)n(C)c(=O)n3C)c1
AC50: 6.42 µM

Oc1[nH]c2ccccc2c1N=NC(=S)N1CCOCC1
AC50: 3.98 µM

N#CC1=C(N)N2C(=C(C#N)C1c1ccc(Br)cc1)Nc1ccccc12 (configuration not stated)
AC50: 1.87 µM

Cc1cc(C)c2c(N)c3cccc(C)c3nc2n1
AC50: 7.91 µM

COc1ccc(OC)c2c1C(=O)C(Cl)=C(Cl)C2=O
AC50: 8.18 µM

Oc1ccc(Nc2nc(N3CCCC3)c3ccccc3n2)cc1
AC50: 18.9 µM

COc1ccc(C(=O)/C(C#N)=N/Nc2ccc([N+](=O)[O-])cc2)cc1
AC50: 2.15 µM

COc1cc(SC#N)ccc1N=Cc1c(C)[nH]n(-c2ccc(C)cc2)c1=O
AC50: 8.46 µM

Nc1c(N(CCC2=CCCCC2)C(=O)COc2ccc(F)cc2)c(=O)[nH]c(=O)n1Cc1ccccc1
AC50: 4.49 µM

Cc1nc2cc(-c3ccccc3)sc2c(=O)n1N
AC50: 3.6 µM

Cc1ccc(-c2cc3cccc[n+]3cc2-c2ccc(C)cc2)cc1
AC50: 0.566 µM

CN(C)c1cc[n+](CC(=O)Nc2ccc(Oc3ccccc3)cc2)cc1
AC50: 2.36 µM

Cc1ccc(S(=O)(=O)N2CCN(c3ncnc4ccccc34)CC2)cc1
AC50: 6.28 µM

C=CCn1c(=NC(=O)c2cc(-c3cccs3)nc3ccccc23)sc2cc(S(N)(=O)=O)ccc21
AC50: 17.9 µM

CCCOc1ccc(Cc2c(Cl)nc(SC)nc2NC)cc1
AC50: 6.05 µM

COc1cccc(/C=N/Nc2ccnc(=O)[nH]2)c1O
AC50: 22.7 µM

Cc1ccc(C(C)C)c(OCc2nn(CC(=O)c3ccc(OC(F)F)cc3)c3[n+]2CCCCC3)c1
AC50: 4.43 µM

COc1ccc(Cc2nc(-c3ccc(NC(=O)c4cccnc4)cc3)no2)cc1
AC50: 0.286 µM

Cc1ccc(S(=O)(=O)/N=C2\C(=O)c3ccccc3C([O-])=C2n2cc[n+](CCC(C)C)c2)cc1
AC50: 16.7 µM

CCCCCCCCCCOC(=O)Cn1c(COc2cccc(OC)c2)[n+](C)c2ccccc21
AC50: 3.47 µM

CCc1ccc(S(=O)(=O)/N=C2/C=C(Sc3ncn[nH]3)C(=O)c3ccccc32)cc1
AC50: 9.6 µM

CCN1CCN(C(c2ccc(C(F)(F)F)cc2)c2ccc3cccnc3c2O)CC1 (configuration not stated)
AC50: 4.72 µM

CCCCCCCCn1ccc(=N)cc1
AC50: 0.65 µM

O=C1N/C(=N\N=C\c2cccnc2)SC1Cc1ccc(SC(F)F)cc1 (configuration not stated)
AC50: 9.68 µM

O=C(c1ccco1)N1N=C(c2ccc(Br)cc2)CC1c1ccco1 (configuration not stated)
AC50: 24.2 µM

COc1ccc(CN(C)c2ccc(S(=O)(=O)N3CCN(C)CC3)cc2[N+](=O)[O-])cc1OC
AC50: 2.83 µM

COc1ccc(-c2cn(-c3ccc(OC)cc3)c3[n+]2-c2ccccc2CC3)cc1
AC50: 0.806 µM

O=Nc1c(O)c2ccccc2c2ccccc12
AC50: 7.61 µM

O=C(N/N=C/c1ccc([N+](=O)[O-])o1)c1ccc(O)cc1
AC50: 7.45 µM

COc1ccc(CNc2ncnc3sccc23)cc1
AC50: 11.3 µM

CCCC(=O)NC(c1ccc(Cl)cc1Cl)c1ccc2cccnc2c1O (configuration not stated)
AC50: 2.3 µM

N#Cc1c([N+](=O)[O-])cc([N+](=O)[O-])cc1S(=O)(=O)Cc1ccccc1
AC50: 4.91 µM

Cc1ccc(C(=O)NC(=S)/C=C2\N(C)c3ccccc3C2(C)C)cc1
AC50: 4.23 µM

CC(Oc1cccc(Cl)c1)C(=O)Nc1cc(S(=O)(=O)N2CCOCC2)ccc1N1CCCCC1 (configuration not stated)
AC50: 5.68 µM

Cc1ccc(Nc2c(-c3ccccn3)nc3ccc(C)cn23)cc1
AC50: 7.28 µM

Cc1ccc(/C=N/Nc2ccnc3cc(Cl)ccc23)c(C)c1
AC50: 13.4 µM

Cc1cc(C)c(S(=O)(=O)/N=C2/C=C(Sc3ncn[nH]3)C(=O)c3ccccc32)cc1C
AC50: 7.58 µM

FC(F)(F)c1cccc(-c2nc3nc(Cl)c(Cl)nc3[nH]2)c1
AC50: 3.13 µM

CCCC(=O)NC(NC(=S)Nc1ccc(N=Nc2ccccc2)cc1)C(Cl)(Cl)Cl (configuration not stated)
AC50: 7.51 µM

CC1(C)C[C@@H]2C[C@@](C)(CN2C(=O)c2cc(COc3cccc(C(F)(F)F)c3)on2)C1
AC50: 17 µM

NS(=O)(=O)c1ccc(N/N=C2/CCCCC2C2CCCCC2)c([N+](=O)[O-])c1 (configuration not stated)
AC50: 8.1 µM

Cc1ccc(NC2=CC(=O)C(=O)c3ccccc32)c(C)c1
AC50: 4.39 µM

COc1ccc(CCNc2cc(N3CCN(C(=O)c4ccccc4OC)CC3)ccc2[N+](=O)[O-])cc1OC
AC50: 8.74 µM

CCOc1ccc2nc(NC(=O)c3ccccn3)sc2c1
AC50: 6.67 µM

COc1cccc(C(=O)Oc2c(CN3CCOCC3)cc(Cl)c3cccnc23)c1
AC50: 14.3 µM

Cc1c(Cl)c([N+](=O)[O-])nn1Cc1ccc(C(=O)N/N=C\c2cc(Cl)ccc2O)o1
AC50: 6.95 µM

CC1=NN(c2nc3ccccc3[nH]2)C(=O)/C1=C/N(C)C
AC50: 2.9 µM

COc1ccc(C(=O)NC(=S)NNC(=O)c2cnccn2)cc1
AC50: 5.21 µM

Fc1ccccc1N=C1NN=C(c2ccccc2)CS1
AC50: 4.95 µM

CCOC(=O)/C(=C\c1ccc([N+](=O)[O-])cc1)C(=O)c1cc(C(C)=O)c(Nc2ccccc2)s1
AC50: 2.41 µM

COc1ccc2nc(C)cc(N/N=C/c3ccccc3)c2c1
AC50: 13.8 µM

O=C(Nc1cccnc1)C1(F)C(F)(F)C(F)(F)C(F)(F)C(F)(F)C1(F)F
AC50: 3.56 µM

COc1cc(NC(=O)c2cc3ccccc3cc2O)c(OC)cc1Cl
AC50: 4.68 µM

Oc1[nH]c2ccc(Br)cc2c1N=NC(=S)N1CCOCC1
AC50: 2.39 µM

CCOc1ccc(C(Nc2cccnc2)c2cc(Cl)c3cccnc3c2O)cc1 (configuration not stated)
AC50: 7.33 µM

CCn1c(-c2ccc(N(C)C)cc2)nc2ccccc21
AC50: 3.75 µM

Cc1nc2c(=O)n(C)c(=O)nc-2n(C)n1
AC50: 2.06 µM

CCOc1cc(-c2sc(Nc3cc(C)ccc3OC)n[n+]2-c2ccccc2)ccc1OC
AC50: 15 µM

O=C(c1cnc(N2CCN(c3ccccn3)CC2)c2ccccc12)N1CCN(c2cccc(Cl)c2)CC1
AC50: 7.59 µM

Cc1ccc2nc(NC(=O)c3ccccn3)sc2c1
AC50: 9.36 µM

CCN(CC)c1ccc(/C=N/NC(=S)NCc2ccccc2)c(O)c1
AC50: 12.3 µM

O=C(C#Cc1ccccc1)Nc1cccc(F)c1
AC50: 11.8 µM

Cc1cc(-c2ccccc2)cc(C)[n+]1Cc1ccccc1
AC50: 0.667 µM

CCN(c1ccccc1)S(=O)(=O)c1ccc(NC(=O)c2nc(S(C)(=O)=O)ncc2Cl)cc1
AC50: 8.95 µM

CC1=NOC(=O)/C1=C/c1ccc(-c2ccc(Cl)cc2)o1
AC50: 7 µM

O=C1C=C(N2CCOCC2)c2ccccc2C1=O
AC50: 6.13 µM

CC(C)(C)c1ccc(C2CC2C(=O)N/N=C\c2ccc[nH]2)cc1 (configuration not stated)
AC50: 0.987 µM

C=C(C=O)C[C@@H]1C[C@H](O)C2OC3C[C@]4(C)OC5/C=C\CC6OC7C(CC=CCC6OC5CCCC4OC3CC2O1)OC1CC2OC3CC(=O)OC3C[C@@H](C)C[C@@]2(C)OC1C[C@@H]7C (some centres not stated)
AC50: 3.79 µM

CN(C)CCNC(=O)/C(=C/c1ccc(-c2ccc(Cl)cc2Cl)o1)NC(=O)c1ccccc1
AC50: 9.44 µM

COc1ccc(C(=O)N/N=C(\c2ccccc2)c2ccccn2)cc1
AC50: 3.51 µM

COc1ccc(OC)c(NC(=O)CSc2ncnc3c2cnn3-c2ccccc2Cl)c1
AC50: 2.31 µM

O=C(Nc1cccc(Cl)c1)Nc1nnc(CSCCOc2ccc(Cl)cc2)s1
AC50: 5.39 µM

O=S(=O)(Nc1cc(Sc2cccc3cccnc23)c(O)c2ccccc12)c1ccc(F)cc1
AC50: 3.9 µM

CCCCCCCCCCOC(=O)Cn1c(COc2cccc(C)c2)[n+](C)c2ccccc21
AC50: 4.71 µM

CC(=O)/C=C/n1c(=S)oc2ccccc21
AC50: 8.87 µM

Cc1ccc(C)c(N2CCN(C(=O)CCCOc3cc(=O)n(C)c4ccccc34)CC2)c1
AC50: 2.7 µM

O=C(NNC(=O)c1cccnc1SCc1cccc([N+](=O)[O-])c1)c1ccc(F)cc1
AC50: 15.8 µM

Cc1cccc(Cn2nnc3c2C(=O)c2ccccc2C3=O)c1
AC50: 10.5 µM

COc1ccccc1/C=C/CN1CCC(n2nccc2NC(=O)CCc2ccccc2)CC1
AC50: 8.85 µM

Cc1ncc(CO)c(/C=N/Nc2ccc(C(F)(F)F)cn2)c1O
AC50: 5.17 µM

C[n+]1c2n(c3ccccc31)N=C(c1ccc(-c3ccccc3)cc1)CS2
AC50: 1.74 µM

C/C(=N\NC(=O)c1cc2ccccc2cc1O)c1ccccn1
AC50: 2.66 µM

CC1Sc2ccc(S(=O)(=O)N3CCC(C(=O)Nc4ccc(Cl)cc4)CC3)cc2NC1=O (configuration not stated)
AC50: 6.13 µM

COc1ccc(Cn2cc3c(-c4ccc(F)cc4)nnc-3c3cc(OC)c(OC)cc32)cc1
AC50: 9.02 µM

CCN(CC)S(=O)(=O)c1ccc(N/N=C/c2cc(OC)ccc2O)nc1
AC50: 4.24 µM

Cc1ccc(NC2=C/C(=N/S(=O)(=O)c3cccs3)c3ccccc3C2=O)cc1
AC50: 2.37 µM

Nc1ccc2c(c1)C(=O)C(=O)c1ccccc1-2
AC50: 1.2 µM

CCCCOc1cc(NCc2ccccc2)c2ncn(C(C)C)c2c1
AC50: 7.26 µM

Cc1ccc2nc(-c3ccc(-c4cccc(Cl)c4)cc3)c(NCc3ccccc3)n2c1
AC50: 2.48 µM

COc1ccc(C(CCN2CCCCC2)c2c(OC)cc(OC)c3c(-c4ccccc4)cc(=O)oc23)cc1 (configuration not stated)
AC50: 14.1 µM

O=C(COc1ccc2ccccc2c1)N1CCN(Cc2c[nH]c3ccccc23)CC1
AC50: 2.8 µM

COC(=O)c1c(C)oc2ccc(N(C(=O)c3ccncc3)S(=O)(=O)c3ccc4ccccc4c3)cc12
AC50: 17.9 µM

O=C(Nc1nc2ccc(F)cc2s1)c1ccccn1
AC50: 4.43 µM

CCCCc1ccc(N/C(N)=N/c2nc(C)cc(C)n2)cc1
AC50: 5.12 µM

COc1cc(C(=O)Oc2c(CN3CCOCC3)cc(Cl)c3cccnc23)cc(OC)c1OC
AC50: 13.3 µM
